Data taken from PubChem BioAssay (NCI).
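Results reflect a 48-hour exposure of cells in 96-well plates to compound at five concentrations. TGI marks complete inhibition of growth.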

Columns and labels:
Experiment in all cases: NCI anticancer screen, dose series, 48 h
NCI-H522 lung = test system: NCI-H522 lung
786-0 renal = test system: 786-0 renal
SF-295 CNS = test system: SF-295 CNS
UACC-257 melanoma = test system: UACC-257 melanoma
NCI-H23 lung = test system: NCI-H23 lung
SF-539 CNS = test system: SF-539 CNS
OVCAR-8 ovarian = test system: OVCAR-8 ovarian
KM12 colon = test system: KM12 colon
SNB-75 CNS = test system: SNB-75 CNS
RPMI-8226 leukemia = test system: RPMI-8226 leukemia
OVCAR-4 ovarian = test system: OVCAR-4 ovarian
SK-MEL-28 melanoma = test system: SK-MEL-28 melanoma
HOP-92 NSCLC = test system: HOP-92 NSCLC
HS 578T breast = test system: HS 578T breast
BT-549 breast = test system: BT-549 breast
SW-620 colon = test system: SW-620 colon
MDA-MB-435 = test system: MDA-MB-435
NCI-H460 lung = test system: NCI-H460 lung
UO-31 renal = test system: UO-31 renal

Compound	TGI (NCI-H522 lung)	TGI (786-0 renal)	TGI (SF-295 CNS)	TGI (UACC-257 melanoma)	TGI (NCI-H23 lung)	TGI (SF-539 CNS)	TGI (OVCAR-8 ovarian)	TGI (KM12 colon)	TGI (SNB-75 CNS)	TGI (RPMI-8226 leukemia)	TGI (OVCAR-4 ovarian)	TGI (SK-MEL-28 melanoma)	TGI (HOP-92 NSCLC)	TGI (HS 578T breast)	TGI (BT-549 breast)	TGI (SW-620 colon)	TGI (MDA-MB-435)	TGI (NCI-H460 lung)	TGI (UO-31 renal)
C=C1CC2CCCC12C=O (stereo not drawn)	> 10 µM	> 10 µM	> 10 µM	> 10 µM	> 10 µM	> 10 µM	> 10 µM	> 10 µM	> 10 µM	> 10 µM	> 10 µM	> 10 µM	> 10 µM	> 10 µM	> 10 µM	> 10 µM	> 10 µM	–	–
COc1ccc(NC(=S)N/N=C\c2ccc(NC(C)=O)cc2)cc1	> 100 µM	> 100 µM	> 100 µM	> 100 µM	> 100 µM	–	–	> 100 µM	> 100 µM	> 100 µM	> 100 µM	> 100 µM	> 100 µM	> 100 µM	> 100 µM	> 100 µM	> 100 µM	> 100 µM	> 100 µM
CCCCCC1CC=CC(=O)O1 (stereo not drawn)	9.71 µM	15.2 µM	35.6 µM	32.9 µM	43 µM	3.83 µM	22.2 µM	20.5 µM	–	12.4 µM	13.8 µM	18.5 µM	37.7 µM	88.5 µM	33.7 µM	29.1 µM	20.2 µM	33.6 µM	24 µM
COc1cc(=O)c2c(O)c3c(O)oc(C)cc3c(OC)c2c1	> 100 µM	86.7 µM	72.7 µM	> 100 µM	69.8 µM	53.8 µM	72 µM	65.8 µM	–	46.4 µM	27.9 µM	60 µM	42.4 µM	> 100 µM	> 100 µM	> 100 µM	32.7 µM	> 100 µM	> 100 µM
COc1cc2c(cc1C[C@H]1[C@@H]3C[C@H]4c5c(c6ccccc6n5C)C[C@@H]([C@@H]3CO[C@]1(C)OC(C)=O)N4C)c1c(n2C)C2C[C@H]3C(C(C)=O)=COC[C@H]3[C@H](C1)N2C	–	5.89 µM	10.4 µM	8.01 µM	> 25 µM	5.87 µM	8.83 µM	5.27 µM	–	3.56 µM	> 25 µM	> 25 µM	> 25 µM	13.3 µM	13.3 µM	11.3 µM	> 25 µM	8.21 µM	> 25 µM
C(/C=C/c1ccccc1)=Nc1ccc2c(c1)Cc1ccccc1-2	> 100 µM	> 100 µM	> 100 µM	–	> 100 µM	–	> 100 µM	> 100 µM	> 100 µM	–	> 100 µM	> 100 µM	> 100 µM	> 100 µM	> 100 µM	> 100 µM	> 100 µM	> 100 µM	> 100 µM
Nc1ccc2nc3c(nc2c1)C(=O)c1ccccc1-3	> 100 µM	> 100 µM	> 100 µM	> 100 µM	> 100 µM	> 100 µM	> 100 µM	> 100 µM	> 100 µM	> 100 µM	> 100 µM	> 100 µM	> 100 µM	> 100 µM	> 100 µM	> 100 µM	> 100 µM	> 100 µM	–
COc1cc(/C=C2/SC(c3ccccc3)N(Cc3ccccc3)C2=O)cc(OC)c1OC (stereo not drawn)	63 µM	> 100 µM	> 100 µM	> 100 µM	> 100 µM	–	> 100 µM	> 100 µM	–	75.1 µM	> 100 µM	> 100 µM	> 100 µM	> 100 µM	> 100 µM	> 100 µM	> 100 µM	> 100 µM	> 100 µM
COc1cc(C(=O)/C=C/c2ccc(OCCSCCCCCCCCCCSCCOc3ccc(/C=C/C(=O)c4cc(OC)c(OC)c(OC)c4)cc3)cc2)cc(OC)c1OC	> 100 µM	> 100 µM	> 100 µM	–	> 100 µM	> 100 µM	> 100 µM	> 100 µM	> 100 µM	> 100 µM	–	> 100 µM	> 100 µM	> 100 µM	> 100 µM	> 100 µM	> 100 µM	–	> 100 µM
O=C(O)CSCc1cc2c(O)c(c1)Cc1cc(CSCC(=O)O)cc(c1O)Cc1cc(CSCC(=O)O)cc(c1O)Cc1cc(CSCC(=O)O)cc(c1O)C2	> 100 µM	> 100 µM	> 100 µM	> 100 µM	> 100 µM	> 100 µM	> 100 µM	> 100 µM	–	> 100 µM	> 100 µM	> 100 µM	> 100 µM	> 100 µM	> 100 µM	> 100 µM	> 100 µM	> 100 µM	> 100 µM
O=Cc1c2n(c3ccccc13)N[C@@](Cc1ccc(O)cc1)(C(=O)O)C2	> 100 µM	> 100 µM	> 100 µM	86.9 µM	> 100 µM	> 100 µM	> 100 µM	> 100 µM	–	> 100 µM	> 100 µM	> 100 µM	> 100 µM	> 100 µM	> 100 µM	> 100 µM	> 100 µM	–	> 100 µM
O=P1(Oc2ccccc2)N=P(c2ccccc2)(c2ccccc2)C=C(c2ccc(Cl)cc2)N1 (stereo not drawn)	24.2 µM	28 µM	19.8 µM	30.8 µM	32.2 µM	28.9 µM	29.8 µM	25.1 µM	–	9.55 µM	–	–	25.4 µM	43.5 µM	29.6 µM	29.5 µM	17.1 µM	18.5 µM	25.8 µM
CCN(CC)C(=O)Cn1c(-c2ccccc2)cc2ccccc21	> 100 µM	> 100 µM	–	> 100 µM	> 100 µM	> 100 µM	> 100 µM	> 100 µM	> 100 µM	–	> 100 µM	> 100 µM	77.7 µM	> 100 µM	94.5 µM	> 100 µM	> 100 µM	> 100 µM	64.5 µM
CC(=O)C1C(=O)C(=O)N(c2ccccc2)C1=O (stereo not drawn)	> 100 µM	> 100 µM	> 100 µM	> 100 µM	> 100 µM	> 100 µM	> 100 µM	> 100 µM	> 100 µM	–	> 100 µM	> 100 µM	> 100 µM	> 100 µM	> 100 µM	> 100 µM	> 100 µM	> 100 µM	> 100 µM
O=C(O)CSC(CC1(c2ccc(Cl)cc2)NC(=O)CS1)c1ccc(Cl)cc1 (stereo not drawn)	> 100 µM	> 100 µM	> 100 µM	> 100 µM	> 100 µM	> 100 µM	> 100 µM	> 100 µM	> 100 µM	> 100 µM	> 100 µM	–	87.6 µM	> 100 µM	> 100 µM	> 100 µM	> 100 µM	> 100 µM	> 100 µM
C[Si](C)(C)C#Cc1cc(-c2nc3ccccc3s2)ccc1N	27.3 µM	30.7 µM	33.7 µM	34.8 µM	40.6 µM	34.5 µM	32.3 µM	34.2 µM	27.5 µM	48.3 µM	29.8 µM	–	27.8 µM	51 µM	33.1 µM	35 µM	34.1 µM	31.1 µM	26.4 µM
O=C(c1ccccc1)c1ccc(N2C(=O)/C(=C/Cc3ccco3)N=C2c2ccccc2)c(N2C(=O)/C(=C/Cc3ccco3)N=C2c2ccccc2)c1	–	> 100 µM	> 100 µM	> 100 µM	–	32.7 µM	> 100 µM	> 100 µM	66.9 µM	91.3 µM	> 100 µM	> 100 µM	> 100 µM	64.9 µM	> 100 µM	> 100 µM	94.9 µM	> 100 µM	> 100 µM
c1ccc2c(CN3CCN(Cc4c[nH]c5ccccc45)CC3)c[nH]c2c1	31.3 µM	31.6 µM	31.1 µM	27.5 µM	42.7 µM	–	37.6 µM	33.1 µM	30.2 µM	53.2 µM	> 100 µM	36.9 µM	31.2 µM	36.2 µM	58.6 µM	93.9 µM	32.4 µM	25.3 µM	27.7 µM
CC(=O)OCC(OC(C)=O)C(OC(C)=O)C(/C=N\Nc1nc2ccccc2c(=O)[nH]1)=N\Nc1nc2ccccc2c(=O)[nH]1 (stereo not drawn)	> 100 µM	> 100 µM	> 100 µM	34 µM	> 100 µM	> 100 µM	> 100 µM	> 100 µM	> 100 µM	> 100 µM	–	> 100 µM	> 100 µM	> 100 µM	> 100 µM	> 100 µM	> 100 µM	47.6 µM	> 100 µM
N#C[C@H](C(=O)c1ccccc1F)c1nc2ccccc2s1	69.3 µM	> 100 µM	77.2 µM	> 100 µM	> 100 µM	59.8 µM	> 100 µM	38.6 µM	> 100 µM	> 100 µM	–	> 100 µM	> 100 µM	> 100 µM	> 100 µM	> 100 µM	> 100 µM	94.2 µM	> 100 µM
OCc1cc2c(ccc3sc4ccc5sc6ccc7ncccc7c6c5c4c32)s1	27.6 µM	15.1 µM	27.7 µM	37.2 µM	–	32.4 µM	62.1 µM	20.4 µM	22.8 µM	96.2 µM	89.2 µM	> 100 µM	> 100 µM	31.9 µM	38.6 µM	> 100 µM	> 100 µM	26.3 µM	7.25 µM
CCCCc1ccc(Nc2nc(Cl)c3ncn(COCCOC(C)=O)c3n2)cc1	42.9 µM	29.5 µM	33.9 µM	36.4 µM	31.4 µM	63.3 µM	32.6 µM	41.3 µM	44.3 µM	55.4 µM	> 100 µM	–	5.33 µM	52.7 µM	35.8 µM	43.8 µM	33.1 µM	32.9 µM	29.7 µM
CC1(C)CC(=O)C(/C=N/C(N)=S)=C(O)C1	> 100 µM	> 100 µM	> 100 µM	> 100 µM	> 100 µM	> 100 µM	> 100 µM	> 100 µM	> 100 µM	–	> 100 µM	> 100 µM	> 100 µM	> 100 µM	> 100 µM	> 100 µM	> 100 µM	> 100 µM	> 100 µM
CC(C)(C)c1cc(-c2cc(C(C)(C)C)[nH]n2)n[nH]1	> 100 µM	> 100 µM	> 100 µM	> 100 µM	> 100 µM	> 100 µM	–	–	–	> 100 µM	> 100 µM	> 100 µM	> 100 µM	> 100 µM	> 100 µM	> 100 µM	> 100 µM	> 100 µM	> 100 µM
CCCC(=O)NC(Nc1cc(C)ccn1)(C(=O)OCC)C(F)(F)F (stereo not drawn)	> 100 µM	> 100 µM	> 100 µM	> 100 µM	> 100 µM	> 100 µM	> 100 µM	> 100 µM	> 100 µM	> 100 µM	> 100 µM	> 100 µM	> 100 µM	> 100 µM	> 100 µM	> 100 µM	> 100 µM	–	> 100 µM
CCOc1ccc2nc3nc(=O)[nH]c(C)c3c(NCCCN(CC)CC)c2c1	> 100 µM	> 100 µM	> 100 µM	> 100 µM	> 100 µM	> 100 µM	> 100 µM	> 100 µM	> 100 µM	–	> 100 µM	> 100 µM	> 100 µM	> 100 µM	> 100 µM	> 100 µM	> 100 µM	> 100 µM	> 100 µM
